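Values below derive from 48-hour exposures of cells grown in 96-well plates, with endpoints linearly interpolated between the two concentrations bracketing the appropriate inhibition level. At the GI50, growth is halved.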 Activity calls are given as the source filed them. Cut-off read from the data, not from the text of the source: active = GI50 up to about 1.1 µM and inactive = higher.
Assays:
Test in all cases: growth of human tumour cells (NCI), 48 h
NCI-H460 = tested on: NCI-H460
EKVX = tested on: EKVX
ACHN = tested on: ACHN
SNB-19 = tested on: SNB-19
SK-MEL-5 = tested on: SK-MEL-5
NCI-H23 = tested on: NCI-H23
COLO 205 = tested on: COLO 205
U-251 = tested on: U-251
HOP-92 = tested on: HOP-92
M14 = tested on: M14
LOX IMVI = tested on: LOX IMVI
SNB-75 = tested on: SNB-75
A498 = tested on: A498
SN12C = tested on: SN12C
KM12 = tested on: KM12
SR = tested on: SR

Measured: GI50

CS(=O)(=O)NNS(=O)(=O)c1ccc(Br)cc1
inactive: NCI-H460 > 100 µM | EKVX > 100 µM | ACHN > 100 µM | SNB-19 > 100 µM | SK-MEL-5 > 100 µM | NCI-H23 > 100 µM | COLO 205 > 100 µM | U-251 > 100 µM | HOP-92 > 100 µM | M14 > 100 µM | LOX IMVI > 100 µM | SNB-75 87.7 µM | A498 > 100 µM

C(=C1\CCC/C(=C/c2ccccc2)C1=NNc1ccccc1)/c1ccccc1
inactive: NCI-H460 > 100 µM | EKVX > 100 µM | ACHN > 100 µM | SNB-19 > 100 µM | SK-MEL-5 > 100 µM | NCI-H23 > 100 µM | COLO 205 > 100 µM | U-251 > 100 µM | HOP-92 > 100 µM | M14 > 100 µM | LOX IMVI > 100 µM | SNB-75 87.3 µM | A498 > 100 µM | SN12C > 100 µM | KM12 > 100 µM

C/C(CC(=O)CCCC(=O)Nc1ccc(Cl)cc1Cl)=N/NC(=O)CC#N
inactive: NCI-H460 > 100 µM | EKVX > 100 µM | ACHN > 100 µM | SNB-19 > 100 µM | SK-MEL-5 > 100 µM | NCI-H23 > 100 µM | COLO 205 > 100 µM | U-251 > 100 µM | M14 > 100 µM | LOX IMVI > 100 µM | SNB-75 > 100 µM | A498 > 100 µM | SN12C > 100 µM | KM12 > 100 µM

O=C(O)c1ccc2c(c1)C(=O)N(c1ccc(S(=O)(=O)c3ccc(N4C(=O)c5ccc(C(=O)O)cc5C4=O)cc3)cc1)C2=O
inactive: NCI-H460 > 100 µM | EKVX > 100 µM | ACHN > 100 µM | SNB-19 > 100 µM | SK-MEL-5 > 100 µM | NCI-H23 > 100 µM | COLO 205 > 100 µM | U-251 > 100 µM | M14 > 100 µM | LOX IMVI > 100 µM | SNB-75 > 100 µM | SR > 100 µM | A498 > 100 µM | SN12C > 100 µM | KM12 > 100 µM

CSC(C1c2ccccc2N(C)C2=NC(=O)N(C)C(=O)C21Cl)S(=O)(=O)c1ccc(C)cc1 (stereo unspecified)
inactive: NCI-H460 > 100 µM | EKVX 94.4 µM | ACHN 50.6 µM | SNB-19 64.3 µM | SK-MEL-5 57.4 µM | NCI-H23 27 µM | COLO 205 40.2 µM | U-251 > 100 µM | HOP-92 24.9 µM | LOX IMVI 45.8 µM | SNB-75 24 µM | A498 > 100 µM | SN12C 50.4 µM | KM12 60.5 µM

COP12(OC)NC(=O)OC1(C(F)(F)F)c1ccccc1O2 (stereo unspecified)
inactive: NCI-H460 > 100 µM | ACHN > 100 µM | SNB-19 > 100 µM | SK-MEL-5 > 100 µM | NCI-H23 > 100 µM | M14 > 100 µM | LOX IMVI > 100 µM | SNB-75 44.9 µM | SN12C > 100 µM | KM12 > 100 µM

CC1(C)CCCC2(C)[C@@H]1CC[C@@]13CC(=O)[C@@](C)(CC[C@@H]21)C3 (stereo partly specified)
inactive: NCI-H460 42.1 µM | ACHN 87.3 µM | SNB-19 > 100 µM | SK-MEL-5 52.5 µM | NCI-H23 59.7 µM | COLO 205 > 100 µM | U-251 49 µM | HOP-92 > 100 µM | M14 94.6 µM | LOX IMVI 39.4 µM | SNB-75 > 100 µM | SR 42.5 µM | SN12C 93.5 µM | KM12 80.5 µM

O=P1(c2ccccc2)CCCCC1
inactive: NCI-H460 > 100 µM | EKVX > 100 µM | ACHN > 100 µM | SNB-19 > 100 µM | SK-MEL-5 > 100 µM | NCI-H23 > 100 µM | COLO 205 > 100 µM | U-251 > 100 µM | M14 > 100 µM | LOX IMVI > 100 µM | SNB-75 > 100 µM | SR > 100 µM | A498 > 100 µM | SN12C > 100 µM | KM12 > 100 µM

OC12c3ccccc3C1(N1CCOCC1)CCCCC21OCCCO1 (stereo unspecified)
inactive: NCI-H460 > 100 µM | ACHN > 100 µM | SNB-19 > 100 µM | SK-MEL-5 > 100 µM | NCI-H23 > 100 µM | COLO 205 > 100 µM | U-251 > 100 µM | M14 > 100 µM | LOX IMVI > 100 µM | SNB-75 > 100 µM | A498 > 100 µM | SN12C > 100 µM | KM12 > 100 µM

C[N+](C)=c1[nH]c2ccccc2[nH]1
inactive: NCI-H460 > 100 µM | EKVX > 100 µM | ACHN > 100 µM | SK-MEL-5 > 100 µM | NCI-H23 > 100 µM | COLO 205 > 100 µM | U-251 > 100 µM | HOP-92 > 100 µM | M14 > 100 µM | LOX IMVI > 100 µM | SNB-75 24.3 µM | SN12C > 100 µM | KM12 > 100 µM
